Values of other authors in US8193226B2, “Candesartan cilexetil” (Zhejiang Huahai Pharmaceutical Co., Ltd., priority 2007, dated 2012).
Like-named read-outs stand apart in the source and are kept apart here.

Assays:
[1] = not given; remark: listed apart in the source
[2] = not given; remark: listed apart in the source

bioavailability (solution): 40% | bioavailability (tablet): 15% | stability when processed into a tablet ([1]; in the presence of other pharmaceutically acceptable additives, or at granulation or tableting): tends to decompose | stability of the drug as such ([1]; isolated form, exposed to increased temperatures, humidity and light): stable | solubility in alcoholic solvents ([2]; alcoholic solvents): readily soluble | solubility in water ([2]; water): practically insoluble
SMILES: CCOc1nc2cccc(C(=O)OC(C)OC(=O)OC3CCCCC3)c2n1Cc1ccc(-c2ccccc2-c2nn[nH]n2)cc1 (stereo not drawn) [candesartan cilexetil]
